Experimental data published in article PMC7944402, “Resin-acid derivatives bind to multiple sites on the voltage-sensor domain of the Shaker potassium channel” (The Journal of General Physiology, 2021).
Where “and” joins values, the source holds several entries; their conditions need not be identical. Equal entries are not always repeated.

Assays:
[1] = target: T1, Shaker KV channel M356R/A359R/R362Q (Drosophila melanogaster, UniProt P08510, A359R/DEL6-46/M356R/R362Q); experiment: Two-electrode voltage clamp in Xenopus oocytes: 2R motif/R362Q; assay type: cell-based
T1 construct: expressed in transfected cells; host or cells: Xenopus laevis oocytes (RNA injection)
Excerpt: (§1) The Shaker H4 channel (GenBank accession no. NM_167595.3; [Kamb et al., 1987]), with removed N-type inactivation due to a Δ6-46 deletion (ShH4IR, in Bluescript II KS(+) plasmid; [Hoshi et al., 1990]), is referred to as the WT Shaker KV channel. Addition of two positively charged arginines (M356R/A359R) at the extracellular top of the voltage sensor increases the effect of charged lipophilic compounds ([Ottosson et al., 2014], [2015], [2017]). […] However, for the resin-acid derivatives studied in the present investigation, R362 reduced the effect. Therefore, we specifically refer to the two added arginines just outside S4 (M356R/A359R) as the 2R motif. Mutations were introduced with site-directed mutagenesis and verified with sequencing as described previously ([Börjesson et al., 2010]). RNA injection and oocyte handling were performed as before ([Börjesson et al., 2010]; [Ottosson et al., 2015]). All animal experiments were approved by the Linköping’s local Animal Care and Use Committee.
(§2) Electrophysiological experiments were made 1–6 d after RNA injection. K^+ currents were measured with the two-electrode voltage-clamp technique (GeneClamp 500B amplifier; Axon Instruments) as described previously ([Ottosson et al., 2015]; [Silverå Ejneby et al., 2018]). The amplifier’s leak compensation was used, and the currents were low-pass filtered at 5 kHz. The control solution contained (in mM) 88 NaCl, 1 KCl, 15 HEPES, 0.4 CaCl2, and 0.8 MgCl2, and pH was set with NaOH. All experiments were made at room temperature (20°C–23°C). The holding potential was set to −80 mV (or −100 mV if the mutant was not fully closed at −80 mV).
(§3) Stock solutions were stored at −20°C and diluted in control solution just before experiments. The test solution was added to the oocyte bath manually with a syringe. […] To make sure all Wu50 molecules were negatively charged, the pH of the control solution was set to 9.0 before the experiments. This pH change had only small effects on channel kinetics and the G(V) relation.
(§4) The conductance, G(V), was calculated as G(V)=I/(V−VK), (1) where I is the steady-state current measured at the end of each test-voltage sweep (100 ms after onset; Clampfit 10.5; Molecular Devices), V is the absolute membrane voltage, and VK is the reversal potential for K^+ ions (set to −80 mV). […] The resin-acid–induced G(V) shift was calculated as V1/2 (compound) − V1/2 (control). The relative change in GMAX was calculated as GMAX (compound) / GMAX (control). The concentration dependence for the G(V) shifts was calculated as ΔV= ΔVMAX/(1 +EC50/c), (3) where ΔV is the voltage shift, ΔVMAX is the voltage shift at saturating concentration, c is the concentration of the tested compound, and EC50 is the concentration at which half-maximum response occurs.

[2] = target: T2, Shaker KV channel M356R/A359R/R362Q/W454A (Drosophila melanogaster, UniProt P08510, A359R/DEL6-46/M356R/R362Q/W454A); experiment: Two-electrode voltage clamp in Xenopus oocytes: 2R motif/R362Q/W454A; assay type: cell-based; conditions: 100 μM, pH 9.0, M356R/A359R/R362Q/W454A
T2 construct: expressed in transfected cells; host or cells: Xenopus laevis oocytes (RNA injection)
Excerpt: as §1, with “Mutations were introduced with site-directed mutagenesis and verified with sequencing as described previously ([Börjesson et al., 2010]). RNA injection and oocyte handling were performed as before ([Börjesson et al., 2010]; [Ottosson et al., 2015]). All animal experiments were approved by the Linköping’s local Animal Care and Use Committee.” left out
(§5) Electrophysiological experiments were made 1–6 d after RNA injection. K^+ currents were measured with the two-electrode voltage-clamp technique (GeneClamp 500B amplifier; Axon Instruments) as described previously ([Ottosson et al., 2015]; [Silverå Ejneby et al., 2018]). […]
(§6) The conductance, G(V), was calculated as G(V)=I/(V−VK), (1) where I is the steady-state current measured at the end of each test-voltage sweep (100 ms after onset; Clampfit 10.5; Molecular Devices), V is the absolute membrane voltage, and VK is the reversal potential for K^+ ions (set to −80 mV). […] The resin-acid–induced G(V) shift was calculated as V1/2 (compound) − V1/2 (control). The relative change in GMAX was calculated as GMAX (compound) / GMAX (control). […]

[3] = target: T3, Shaker KV channel M356R/A359R/W454A (Drosophila melanogaster, UniProt P08510, A359R/DEL6-46/M356R/W454A); experiment: Two-electrode voltage clamp in Xenopus oocytes: 2R motif/W454A; assay type: cell-based
T3 construct: expressed in transfected cells; host or cells: Xenopus laevis oocytes (RNA injection)
Excerpt: as §1, §2, §3, §4

[4] = target: T4, Shaker KV channel W454A (Drosophila melanogaster, UniProt P08510, DEL6-46/W454A); experiment: Two-electrode voltage clamp in Xenopus oocytes: W454A; assay type: cell-based; conditions: 100 μM, pH 9.0, W454A
T4 construct: expressed in transfected cells; host or cells: Xenopus laevis oocytes (RNA injection)
Excerpt: as §1, §5, §4

[5] = tested on: Shaker KV channel binding sites (S3/S4, S4/pore, residual); experiment: Additive model of site contributions to the G(V) shift (least squares fit); parameters: species or system Drosophila melanogaster
Excerpt: We also considered a reduced dataset of five mutants for Wu50 to make the comparison between the two compounds equitable (Table S1).
The G(V) shift for each mutant was expressed as a sum of contribution from the various sites: ΔVmodel=ΔVS3/S4+ΔVS4/pore+ΔVResidual, (4) where ΔVS3/S4 is the G(V) shift due to compound binding to the S3/S4 site, ΔVS4/pore is the G(V) shift due to compound binding to the S4/pore site, and ΔVResidual is the G(V) shift due to compound binding to other sites, including the top-VSD site.
Following the assumptions based on observations made using MD simulations, ΔVS3/S4 was set to 0 if the 2R motif was missing (i.e., in the WT channel), ΔVS4/pore could adopt one of four values depending on the type of mutation (R362/W454 = WT configuration, R362Q, W454A, or R362Q/W454A), and ΔVResidual was assumed to be the same for all mutants.
The model further assumed that there is a residual effect that can be due to binding to the VSD-top site or to any other unidentified site and that the contributions due to binding to the S3/S4 site and the S4/pore site depend upon mutations at this site.

[6] = target: T5, Shaker KV channel R362Q/R365Q/W454A (Drosophila melanogaster, UniProt P08510, DEL6-46/R362Q/R365Q/W454A); experiment: Two-electrode voltage clamp in Xenopus oocytes: R362Q/R365Q/W454A; assay type: cell-based; conditions: 100 μM, pH 9.0, R362Q/R365Q/W454A
T5 construct: expressed in transfected cells; host or cells: Xenopus laevis oocytes (RNA injection)
Excerpt: as §1, with “Mutations were introduced with site-directed mutagenesis and verified with sequencing as described previously ([Börjesson et al., 2010]). RNA injection and oocyte handling were performed as before ([Börjesson et al., 2010]; [Ottosson et al., 2015]). All animal experiments were approved by the Linköping’s local Animal Care and Use Committee.” left out
as §5, §6

[7] = target: T6, Shaker KV channel R362Q/R365Q (Drosophila melanogaster, UniProt P08510, DEL6-46/R362Q/R365Q); experiment: Two-electrode voltage clamp in Xenopus oocytes: R362Q/R365Q; assay type: cell-based; conditions: 100 μM, pH 9.0, R362Q/R365Q
T6 construct: expressed in transfected cells; host or cells: Xenopus laevis oocytes (RNA injection)
Excerpt: as §1, §5, §4

[8] = 100 μM, pH 9.0, M356R/A359R/R362Q
[9] = 100 μM, pH 9.0, M356R/A359R/W454A

T4 sequence (P08510 other isoform, or with tags, fused parts or gaps DEL6-46/W454A): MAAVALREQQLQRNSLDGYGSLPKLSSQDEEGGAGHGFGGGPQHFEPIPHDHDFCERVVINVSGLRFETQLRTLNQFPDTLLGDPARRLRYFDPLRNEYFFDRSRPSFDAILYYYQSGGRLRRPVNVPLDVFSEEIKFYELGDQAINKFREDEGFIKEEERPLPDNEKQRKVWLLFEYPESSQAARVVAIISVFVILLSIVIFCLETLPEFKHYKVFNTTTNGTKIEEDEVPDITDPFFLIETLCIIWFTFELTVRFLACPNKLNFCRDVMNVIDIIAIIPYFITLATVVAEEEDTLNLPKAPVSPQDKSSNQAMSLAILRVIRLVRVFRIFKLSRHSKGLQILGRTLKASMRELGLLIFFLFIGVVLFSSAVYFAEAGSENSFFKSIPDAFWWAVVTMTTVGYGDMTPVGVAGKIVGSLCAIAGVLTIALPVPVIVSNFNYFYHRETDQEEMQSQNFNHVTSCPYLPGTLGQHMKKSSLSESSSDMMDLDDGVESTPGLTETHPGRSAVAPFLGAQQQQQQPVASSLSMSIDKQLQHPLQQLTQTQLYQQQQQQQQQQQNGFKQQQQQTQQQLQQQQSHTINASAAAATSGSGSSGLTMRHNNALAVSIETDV
T3 sequence (P08510 with tags, fused parts or gaps DEL6-46/M356R/A359R/W454A): as the sequence (P08510 other isoform, or with tags, fused parts or gaps DEL6-46/W454A) above, with M315R, A318R counted along it
T1 sequence (P08510 other isoform, or with tags, fused parts or gaps DEL6-46/M356R/A359R/R362Q): as the sequence (P08510 other isoform, or with tags, fused parts or gaps DEL6-46/W454A) above, with M315R, A318R, R321Q, A413W counted along it
T2 sequence (P08510 with tags, fused parts or gaps DEL6-46/M356R/A359R/R362Q/W454A): as the sequence (P08510 other isoform, or with tags, fused parts or gaps DEL6-46/W454A) above, with M315R, A318R, R321Q counted along it
T5 sequence (P08510 with tags, fused parts or gaps DEL6-46/R362Q/R365Q/W454A): as the sequence (P08510 other isoform, or with tags, fused parts or gaps DEL6-46/W454A) above, with R321Q, R324Q counted along it
T6 sequence (P08510 other isoform, or with tags, fused parts or gaps DEL6-46/R362Q/R365Q): as the sequence (P08510 other isoform, or with tags, fused parts or gaps DEL6-46/W454A) above, with R321Q, R324Q, A413W counted along it

C[C@@]1(C(=O)O)CCC[C@]2(C)c3cc(Cl)c(Cl)c(Cl)c3CC[C@@H]12 [Wu50]
G(V) shift, representative recording (Fig. 4 B) ([1]; 100 µM, pH 9.0, 2R motif/R362Q): −59.0 mV
GMAX (rel.) [1, 8]: 1.93 rel.
ΔVG(V) (G(V) shift) [1, 8]: −54.0 ± 2.3 mV and -54.0 mV
GMAX (rel.) [2]: 1.50 rel.
ΔVG(V) (G(V) shift) [2]: −56.6 ± 5.8 mV and -56.6 mV
EC50 [3]: 27.9 ± 9.2 µM
GMAX (rel.) [3, 9]: 1.28 rel.
ΔVG(V) (G(V) shift) [3, 9]: -39.6 mV
ΔVMAX (maximum G(V) shift) ([3]; 2R motif/W454A, pH 9.0, concentration-response): −62.3 ± 6.5 mV
GMAX (rel.) [4]: 0.56 rel.
ΔVG(V) (G(V) shift) [4]: −8.1 ± 0.4 mV and -8.1 mV
ΔVS3/S4 (contribution of the S3/S4 site in the presence of the 2R mutations) ([5]; eight mutants): −17 mV
ΔVS4/pore, R362Q configuration ([5]; eight mutants): −34 mV
ΔVS4/pore, R362Q/W454A configuration ([5]; eight mutants): −31 mV
ΔVS4/pore, WT S4/pore site ([5]; eight mutants): −15 mV
ΔVS3/S4 (contribution of the S3/S4 site in the presence of the 2R mutations) ([5]; five mutants): −10 mV
ΔVS4/pore, R362Q configuration ([5]; five mutants): −37 mV
ΔVS4/pore, WT S4/pore site ([5]; five mutants): −18 mV
ΔVResidual (contribution of other sites to the G(V) shift) ([5]; five mutants (Wu50 constrained to be the same as for eight mutants)): −10 mV
ΔVS4/pore, W454A configuration ([5]; no clear difference between five-mutants and eight-mutants datasets): +2 to −6 mV
GMAX (rel.) [6]: 0.57 rel.
ΔVG(V) (G(V) shift) [6]: −24.7 ± 3.0 mV and -24.7 mV
GMAX (rel.) [7]: 0.55 rel.
ΔVG(V) (G(V) shift) [7]: −25.5 ± 4.6 mV and -25.5 mV
